In the data set the test system is CCRIS mutagenicity, Ames/micronucleus/aberration tests. The experiment in a line: CCRIS mutagenicity studies.
Setting [1] is: Test System: AMES SALMONELLA TYPHIMURIUM, Strain/Indicator: TA98, Metabolic Activation: NONE, Method: PREINCUBATION
Setting [2] is: Test System: AMES SALMONELLA TYPHIMURIUM, Strain/Indicator: TA100, Metabolic Activation: NONE, Method: PREINCUBATION
Where [3] appears, read: Test System: AMES SALMONELLA TYPHIMURIUM, Strain/Indicator: TA1535, Metabolic Activation: NONE, Method: PREINCUBATION
Where [4] appears, read: Test System: AMES SALMONELLA TYPHIMURIUM, Strain/Indicator: TA1537, Metabolic Activation: NONE, Method: PREINCUBATION

Entries after “also recorded” stand apart in the source; their conditions may differ. Calls of active or inactive are those of the source. No rule for the calls is given here.

`CC(C)CC(C)N` (stereo not drawn): the mutagenic call was “inactive; negative” (Test System: AMES SALMONELLA TYPHIMURIUM, Strain/Indicator: TA98, Metabolic Activation: HAMSTER, LIVER, S-9, AROCLOR 1254 (10%), Method: PREINCUBATION); “inactive; negative” under setting [1]; “inactive; negative” (Test System: AMES SALMONELLA TYPHIMURIUM, Strain/Indicator: TA98, Metabolic Activation: RAT, LIVER, S-9, AROCLOR 1254 (10%), Method: PREINCUBATION); “inactive; negative” (Test System: AMES SALMONELLA TYPHIMURIUM, Strain/Indicator: TA100, Metabolic Activation: HAMSTER, LIVER, S-9, AROCLOR 1254 (10%), Method: PREINCUBATION); “inactive; negative” under setting [2]; “inactive; negative” (Test System: AMES SALMONELLA TYPHIMURIUM, Strain/Indicator: TA100, Metabolic Activation: RAT, LIVER, S-9, AROCLOR 1254 (10%), Method: PREINCUBATION). Further, the mutagenic call is “inactive; negative” (Test System: AMES SALMONELLA TYPHIMURIUM, Strain/Indicator: TA1535, Metabolic Activation: HAMSTER, LIVER, S-9, AROCLOR 1254 (10%), Method: PREINCUBATION); “inactive; negative” under setting [3]; “inactive; negative” (Test System: AMES SALMONELLA TYPHIMURIUM, Strain/Indicator: TA1535, Metabolic Activation: RAT, LIVER, S-9, AROCLOR 1254 (10%), Method: PREINCUBATION); “inactive; negative” (Test System: AMES SALMONELLA TYPHIMURIUM, Strain/Indicator: TA1537, Metabolic Activation: HAMSTER, LIVER, S-9, AROCLOR 1254 (10%), Method: PREINCUBATION); “inactive; negative” under setting [4]; “inactive; negative” (Test System: AMES SALMONELLA TYPHIMURIUM, Strain/Indicator: TA1537, Metabolic Activation: RAT, LIVER, S-9, AROCLOR 1254 (10%), Method: PREINCUBATION).
For the molecule `CC(C)(C)CC(C)(C)c1ccc(O)cc1`, the mutagenic call is “inactive; negative. toxic at 0.04 mg/ml; also recorded: inactive; negative. toxic at 0.030 and 0.036 mg/ml” (End Point: In vitro chromosomal aberrations, Test System: Chinese hamster lung (CHL/IU) cells, Metabolic Activation: None); “active; positive (structural changes and ploidy). toxic at 0.06 mg/ml” (End Point: In vitro chromosomal aberrations, Test System: Chinese hamster lung (CHL/IU) cells, Metabolic Activation: Rat, Liver, S9, Phenobarbital and 5,6-benzoflavone); “inactive; negative” under setting [1]; “inactive; negative” (Test System: AMES SALMONELLA TYPHIMURIUM, Strain/Indicator: TA98, Metabolic Activation: RAT LIVER S-9, PHENOBARBITAL AND BETA-NAPHTHOVLAVONE, Method: PREINCUBATION); “inactive; negative” under setting [2]; “inactive; negative” (Test System: AMES SALMONELLA TYPHIMURIUM, Strain/Indicator: TA100, Metabolic Activation: RAT LIVER S-9, PHENOBARBITAL AND BETA-NAPHTHOFLAVONE, Method: PREINCUBATION). Moreover, the mutagenic call is “inactive; negative” (Test System: AMES SALMONELLA TYPHIMURIUM, Strain/Indicator: TA102, Metabolic Activation: NONE, Method: PREINCUBATION); “inactive; negative” (Test System: AMES SALMONELLA TYPHIMURIUM, Strain/Indicator: TA102, Metabolic Activation: RAT LIVER S-9, PHENOBARBITAL AND BETA-NAPHTHOFLAVONE, Method: PREINCUBATION); “inactive; negative” (Test System: AMES SALMONELLA TYPHIMURIUM, Strain/Indicator: TA104, Metabolic Activation: NONE, Method: PREINCUBATION); “inactive; negative” (Test System: AMES SALMONELLA TYPHIMURIUM, Strain/Indicator: TA104, Metabolic Activation: RAT LIVER S-9, PHENOBARBITAL AND BETA-NAPHTHOFLAVONE, Method: PREINCUBATION); “inactive; negative” under setting [3]; “inactive; negative” (Test System: AMES SALMONELLA TYPHIMURIUM, Strain/Indicator: TA1535, Metabolic Activation: RAT LIVER S-9, PHENOBARBITAL AND BETA-NAPHTHOFLAVONE, Method: PREINCUBATION). In addition, the mutagenic call is “inactive; negative” under setting [4]; “inactive; negative” (Test System: AMES SALMONELLA TYPHIMURIUM, Strain/Indicator: TA1537, Metabolic Activation: RAT LIVER S-9, PHENOBARBITAL AND BETA-NAPHTHOFLAVONE, Method: PREINCUBATION); “inactive; negative” (Test System: E. COLI, Strain/Indicator: WP2UVRA/PKM101, Metabolic Activation: NONE, Method: PREINCUBATION); “inactive; negative” (Test System: E. COLI, Strain/Indicator: WP2UVRA/PKM101, Metabolic Activation: RAT LIVER S-9, PHENOBARBITAL AND BETA-NAPHTHOFLAVONE, Method: PREINCUBATION); “inactive; negative” (Test System: E. COLI, Strain/Indicator: WP2UVRA, Metabolic Activation: NONE, Method: PREINCUBATION); “inactive; negative” (Test System: E. COLI, Strain/Indicator: WP2UVRA, Metabolic Activation: RAT LIVER S-9, PHENOBARBITAL AND BETA-NAPHTHOFLAVONE, Method: PREINCUBATION).
`N[C@@H]1C[C@H]1c1ccccc1`: the mutagenic call (Test System: AMES SALMONELLA TYPHIMURIUM, Strain/Indicator: TA98, Metabolic Activation: NONE, Method: STANDARD PLATE) was “inactive; negative”; the mutagenic call (Test System: AMES SALMONELLA TYPHIMURIUM, Strain/Indicator: TA98, Metabolic Activation: RAT, LIVER, S-9, AROCLOR 1254, Method: STANDARD PLATE) was “inactive; negative”; the mutagenic call (Test System: AMES SALMONELLA TYPHIMURIUM, Strain/Indicator: TA100, Metabolic Activation: NONE, Method: STANDARD PLATE) is “inactive; negative”; the mutagenic call (Test System: AMES SALMONELLA TYPHIMURIUM, Strain/Indicator: TA100, Metabolic Activation: RAT, LIVER, S-9, AROCLOR 1254, Method: STANDARD PLATE) was “inactive; negative”; the mutagenic call (Test System: AMES SALMONELLA TYPHIMURIUM, Strain/Indicator: TA1535, Metabolic Activation: NONE, Method: STANDARD PLATE) was “inactive; negative”; the mutagenic call (Test System: AMES SALMONELLA TYPHIMURIUM, Strain/Indicator: TA1535, Metabolic Activation: RAT, LIVER, S-9, AROCLOR 1254, Method: STANDARD PLATE) is “inactive; negative”. Moreover, the mutagenic call reads like this: (Test System: AMES SALMONELLA TYPHIMURIUM, Strain/Indicator: TA1537, Metabolic Activation: NONE, Method: STANDARD PLATE) “inactive; negative”; (Test System: AMES SALMONELLA TYPHIMURIUM, Strain/Indicator: TA1537, Metabolic Activation: RAT, LIVER, S-9, AROCLOR 1254, Method: STANDARD PLATE) “inactive; negative”.

Source of the values: PubChem BioAssay AID1259407 (Chemical Carcinogenesis Research Information System (CCRIS), 2018).
